We go through 3 molecules from patent publication US9526249B2, “Biocidal composition of 2,6-dimethyl-m-dioxane-4-ol acetate and methods of use” (priority 2008, dated 2016).

Holding throughout (assay type): cell-based
The subject of assay [1] is Pseudomonas aeruginosa (ATCC#15442), Pseudomonas aeruginosa (ATCC#10145), Enterobacter gergoviae (ATCC#33028), Escherichia coli (ATCC#11229), Pseudomonas …. In words: Preservative efficacy (repeated bacterial challenge) of dimethoxane/MIT in commercial liquid laundry detergent (pH 8.0), 96-deep well block. Conditions: day 20. As for the experimental part:
(§1) In the following examples, tests are conducted in a 96-deep well block format using a total sample volume of 600 μl for all evaluations. In these samples, no more than 10% of the total volume consists of the biocide and organism solution and all non-matrix additions are normalized for all samples. Each experimental 96-well block contains biocide-treated samples and control samples which lack biocide.
(§2) Twenty-four hour tryptic soy broth cultures are combined in equal parts for formulation inoculation at a final concentration of 5×10^6 CFU/ml. Organisms are added to each sample of the 96-well block and mixed until homogenous. Additionally, bacterial challenges of the industrial or household product occur on days 2, 7, and 14 of the 28-day test period.
(§3) Sample aliquots are removed, at predetermined time points, for the enumeration of surviving microorganisms. Numerical values in the data tables listed below represent the log10 viable microorganisms recovered from individual samples at specific time points and biocide concentrations post microorganism addition. Biocide concentrations resulting in a≧4 log10 kill of microorganisms, as compared to the preservative-free control, were deemed a significant reduction of viable organisms and were subsequently used for calculating synergy index values.
(§4) The reported synergy indexes are measured and calculated using the formula described below. In this approach, a synergy index of 1 indicates additivity. If the index is less than 1, synergy has occurred, while a synergy index greater than 1 indicates antagonism. Synergy index=CA/Ca+CB/Cb Ca=minimal concentration of antimicrobial A, alone, producing a 4 log10 microbial kill Cb=minimal concentration of antimicrobial B, alone, producing a 4 log10 microbial kill
(§5) CA and CB=the concentrations of antimicrobials A and B, in combination, producing a 4 log10 microbial kill.
The antimicrobial profiles of 2,6-dimethyl-m-dioxan-4-ol acetate (dimethoxane), 2-methyl-3-isothiazolinone (MIT), and combinations of dimethoxane/MIT are evaluated in a commercial liquid laundry detergent formulation (pH 8.0). The detergent formulation is determined to be free of microbial contamination prior to initiation of preservative efficacy evaluations.
Organisms for this example: Pseudomonas aeruginosa (ATCC#15442), Pseudomonas aeruginosa (ATCC#10145), Enterobacter gergoviae (ATCC#33028), Escherichia coli (ATCC#11229), Pseudomonas putida (ATCC#49128), Staphylococcus aureus (ATCC#6538).

The subject of assay [2] is Pseudomonas aeruginosa (ATCC#15442), Pseudomonas aeruginosa (ATCC#10145), Enterobacter aerogenes (ATCC#13048), Escherichia coli (ATCC#11229), Klebsiella …. Briefly: Preservative efficacy (repeated bacterial challenge) of dimethoxane/BIT in commercial liquid laundry detergent (pH 8.0), 96-deep well block. As for the experimental part: as §1, §2, §3, §4, §5
The antimicrobial profiles dimethoxane, 1,2-benzisothiazol-3-one (BIT), and combinations of dimethoxane/BIT are evaluated in a commercial liquid laundry detergent formulation (pH 8.0).
(§6) Organisms for this example: Pseudomonas aeruginosa (ATCC#15442), Pseudomonas aeruginosa (ATCC#10145), Enterobacter aerogenes (ATCC#13048), Escherichia coli (ATCC#11229), Klebsiella pneumoniae (ATCC#8308), Staphylococcus aureus (ATCC#6538), Salmonella choleraesuis (ATCC#10708).

The test system is the same in assay [3]. In words: Preservative efficacy (repeated bacterial challenge) of dimethoxane/BIT in commercial water-based latex paint (pH 7.4), 96-deep well block. As for the experimental part: as §1, §2, §3, §4, §5
The antimicrobial profiles of dimethoxane, BIT, and combinations of dimethoxane/BIT are evaluated in a commercial (interior eggshell) water-based latex paint formulation (pH 7.4). The paint formulation is determined to be free of microbial contamination prior to initiation of preservative efficacy evaluations.
as §6

Assay [4] shares this test system. Briefly: Preservative efficacy (repeated bacterial challenge) of dimethoxane/CMIT/MIT in commercial water-based latex paint (pH 7.4), 96-deep well block. As for the experimental part: as §1, §2, §3, §4, §5
The antimicrobial profiles of 2,6-dimethyl-m-dioxan-4-ol acetate (dimethoxane), 5-chloro-2-methyl-4-isothiazolin-3-one/2-methyl-4-isothiazolin-3-one (CMIT/MIT) and combinations of dimethoxane/CMIT/MIT are evaluated in a commercial (interior eggshell) water-based latex paint formulation (pH 7.4). The paint formulation is determined to be free of microbial contamination prior to initiation of preservative efficacy evaluations.
as §6

In assay [5] the test system is wild strain of green algae isolated from contaminated PVA latex. In words: Challenge testing of PVA latex against wild strain of green algae. Conditions: Dimethoxane 2000 ppm alone (CMIT/MIT 0 ppm), three weeks. As for the experimental part: Procedure. In this example, a viscous PVA (poly vinyl acetate) latex diluted with water at 5 to 1 ratio is used for algal efficacy testing. Each sample is mixed well by hand and vortex for 2 minutes. 5mL portions of each sample are then placed in a six-well plate and inoculated with 500 μL of 1×10^6 cfu/mL wild strain of green algae isolated from contaminated PVA latex.
The plates are incubated at room temp (25° C.-26° C.) under cyclic exposure to light (OTT-Lite model #OTL4012P, 40 Watt, 26 KLumen) and dark phases, for a period of three weeks.

Setting [6] is: day 20, ppm active, following four bacterial challenges.

`Cn1ccc(=O)s1` [MIT, 2-Methyl-3-isothiazolinone]: the “log10 viable microorganisms (score)” value in assay [1] (MIT alone 3 ppm), in assay [1] (MIT alone 4 ppm), in assay [1] (MIT alone 7 ppm), in assay [1] (MIT alone 10 ppm), in assay [1] (MIT alone 15 ppm) and in assay [1] (MIT alone 22 ppm) was 8.0 log10 each time. Further, the “log10 viable microorganisms (score)” value is 8.0 log10 in assay [1] (MIT alone 33 ppm) and 3.0 log10 in assay [1] (MIT alone 50 ppm). The “MIT Alone (minimal concentration producing a 4 log10 microbial kill)” value in assay [1] is greater than 50 ppm.
In the case of `O=c1[nH]sc2ccccc12` [BIT, 1,2-benzisothiazol-3-one], the “log10 viable microorganisms (score)” value in assay [2] (BIT alone 18 ppm, day 20) is recorded as 6.0 log10; in assay [2] (BIT alone 26 ppm, day 20), 7.0 log10; in assay [2] (BIT alone 40 ppm, day 20), 3.0 log10; in assay [2] (BIT alone 59 ppm, day 20), 0.0 log10; in assay [2] (BIT alone 89 ppm, day 20), 0.0 log10; in assay [2] (BIT alone 133 ppm, day 20), 0.0 log10. Also, the “log10 viable microorganisms (score)” value in assay [2] (BIT alone 200 ppm, day 20) was found to be 1.0 log10; in assay [2] (BIT alone 300 ppm, day 20), 1.0 log10; in assay [3] (BIT alone 29 ppm, day 15) it was 8 log10; in assay [3] (BIT alone 44 ppm, day 15), 7 log10; in assay [3] (BIT alone 66 ppm, day 15) it was 6 log10; in assay [3] (BIT alone 99 ppm, day 15) it was 7 log10. In addition, the “log10 viable microorganisms (score)” value in assay [3] (BIT alone 148 ppm, day 15) was found to be 7 log10; in assay [3] (BIT alone 222 ppm, day 15), 8 log10; in assay [3] (BIT alone 333 ppm, day 15), 8 log10; in assay [3] (BIT alone 500 ppm, day 15), 5 log10. In addition, the “BIT alone (minimal concentration producing a 4 log10 microbial kill)” value in assay [2] (setting [6]) worked out at 59 ppm.
For `CC(=O)OC1CC(C)OC(C)O1` (stereo not shown) [DMX, 2,6-dimethyl-m-dioxane-4-ol acetate], the log10 viable microorganisms worked out at 0.0 log10 in assay [2] (480 h, 1160 ppm); 6.0 log10 in assay [2] (DMX alone 102 ppm a.i., day 20); 6.0 log10 in assay [2] (DMX alone 153 ppm a.i., day 20); 6.0 log10 in assay [2] (DMX alone 229 ppm a.i., day 20); 6.0 log10 in assay [2] (DMX alone 344 ppm a.i., day 20); 6.0 log10 in assay [2] (DMX alone 516 ppm a.i., day 20). In addition, the log10 viable microorganisms in assay [2] (DMX alone 773 ppm a.i., day 20) was 4.0 log10; in assay [2] (DMX alone 1740 ppm a.i., day 20), 0.0 log10; in assay [3] (360 h, 1160 ppm) it was 3 log10; in assay [3] (DMX alone 102 ppm a.i., day 15) it was 7 log10; in assay [3] (DMX alone 153 ppm a.i., day 15), 8 log10; in assay [3] (DMX alone 229 ppm a.i., day 15), 7 log10. Also, the log10 viable microorganisms was found to be 7 log10 in assay [3] (DMX alone 344 ppm a.i., day 15); 8 log10 in assay [3] (DMX alone 516 ppm a.i., day 15); 7 log10 in assay [3] (DMX alone 773 ppm a.i., day 15); 0 log10 in assay [3] (DMX alone 1740 ppm a.i., day 15); 8.0 log10 in assay [1] (DMX alone 77 ppm); 8.0 log10 in assay [1] (DMX alone 115 ppm). Besides, the log10 viable microorganisms in assay [1] (DMX alone 172 ppm) was 8.0 log10; in assay [1] (DMX alone 257 ppm) it was 5.0 log10; in assay [1] (DMX alone 386 ppm), 4.0 log10; in assay [1] (DMX alone 580 ppm), 3.0 log10; in assay [1] (DMX alone 870 ppm), 1.0 log10; in assay [1] (DMX alone 1305 ppm) it was 0.0 log10. Besides, the log10 viable microorganisms came to 2 log10 in assay [4] (480 h, 1740 ppm); 8 log10 in assay [4] (DMX alone 102 ppm a.i., day 20); 8 log10 in assay [4] (DMX alone 153 ppm a.i., day 20); 7 log10 in assay [4] (DMX alone 229 ppm a.i., day 20); 7 log10 in assay [4] (DMX alone 344 ppm a.i., day 20); 8 log10 in assay [4] (DMX alone 516 ppm a.i., day 20). The log10 viable microorganisms in assay [4] (DMX alone 773 ppm a.i., day 20) is recorded as 8 log10; in assay [4] (DMX alone 1160 ppm a.i., day 20) it was 6 log10. Further, the “DMX alone (minimal concentration producing a 4 log10 microbial kill)” value in assay [2] (setting [6]) stood at 1160 ppm; in assay [3] (day 15, ppm active, following four bacterial challenges) it was 1160 ppm; in assay [1] it was 870; in assay [4] (setting [6]) it was 1740 ppm. Besides, the “% algal growth Sample A” value in assay [5] is listed as 15%. For the same molecule, the “% algal growth Sample B” value in assay [5] was 15%.
